From patent US6680304B2, “Disaccharides with anti-arthrosic properties” (Bioiberica, S.A., priority 2000, dated 2004)
Structures can show the parent of a compound that is named as a salt.

Columns and labels:
aggrecan = assay: Aggrecan accumulation in cell-associated matrix of IL-1-treated chondrocytes in alginate gel, flow cytometry; type: cell-based, human; conditions: for AGGR (aggrecan): 7 days, average of three measures; for change in accumulation of aggrecan in the CAM: IL-1+ chondrocytes, treated compared to untreated
Experimental: (§1) Each of the compounds (Ib, IC) has been tested on human articular cartilage chondrocytes obtained from 2 different donors. The chondrocytes were cultured over 7 days in alginate gel and during this period they were exposed to the different drugs. The cells were then isolated from the gel and tested. The test protocol specified that the chondrocytes were exposed to IL-1 since it has been shown that particularly IL-1-treated chondrocytes, as opposed to non-treated chondrocytes, respond to polysulphated polysaccharides. As a positive control, chondroitin sulphate (CS) and chondroitin polysulphate (CPS) have been used.
(§2) The accumulation of aggrecan and of type II collagen in the cell-associated matrix (CAM) of the chondrocytes in culture was the primary variable to evaluate the DMOAD (Disease Modifying Osteoarthritic Drug) effects of the 2 compounds. The intracellular levels of IL-1α and β, MMP-13 were also studied.
(§3) All assays were made by flow cytometry. Specific Fluoresceine Isothiocyanate- (FITC-) or Phycoerythin (PE-) conjugated monoclonal antibodies (Mab) against the different proteins have been used. The results were expressed as Mean Fluorescence Intensity (MFI) of the chondrocyte population after staining with the respective Mab.

type II collagen = assay: Type II collagen accumulation in cell-associated matrix of IL-1-treated chondrocytes in alginate gel, flow cytometry; type: cell-based, human; conditions: for COLL (type II collagen): 7 days, average of three measures; for change in accumulation of type II collagen in the CAM: IL-1+ chondrocytes, treated compared to untreated
Experimental: as §1, §2, §3

IL-1α = assay: Intracellular IL-1α level in IL-1-treated chondrocytes, flow cytometry; type: cell-based, human; conditions: for IL-1α / IL-Iα: 7 days, average of three measures; for change in levels of IL-1α: IL-1+ chondrocytes, treated compared to untreated
Experimental: as §1, §2, §3

IL-1β = assay: Intracellular IL-1β level in IL-1-treated chondrocytes, flow cytometry; type: cell-based, human; conditions: for IL-1β: 7 days, average of three measures; for change in levels of IL-1β: IL-1+ chondrocytes, treated compared to untreated
Experimental: as §1, §2, §3

MMP-13 = assay: Intracellular MMP-13 level in IL-1-treated chondrocytes, flow cytometry; type: cell-based, human; conditions: for MMP-13: 7 days, average of three measures; for change in levels of MMP-13: IL-1+ chondrocytes, treated compared to untreated
Experimental: as §1, §2, §3

[1] = test system: human articular chondrocytes; assay: Overall DMOAD (cartilage structure modifying) effect on cultured chondrocytes; type: cell-based; conditions: effects comparable to those of CS and CPS
Experimental: as §1, §2, §3

[2] = Table 1, donor F53 + IL-1β, 25 μ/ml
[3] = Table 1, donor F53 + IL-1β, 10 μ/ml
[4] = Table 2, donor F53 + IL-1β, 10 μg/ml
[5] = Table 2, donor F53 + IL-1β, 25 μg/ml

Molecule	overall conclusion on effect on cartilage [1]	change in accumulation of aggrecan in the CAM (aggrecan)	AGGR (aggrecan) (aggrecan; [3]) [MFI]	AGGR (aggrecan) (aggrecan; [4]) [MFI]	AGGR (aggrecan) (aggrecan; donor F16 + IL-1β, 10 μ/ml) [MFI]	AGGR (aggrecan) (aggrecan; donor F73 + IL-1β, 10 μg/ml) [MFI]	change in accumulation of type II collagen in the CAM (type II collagen)	COLL (type II collagen) (type II collagen; [3]) [MFI]	COLL (type II collagen) (type II collagen; [4]) [MFI]	COLL (type II collagen) (type II collagen; donor F16 + IL-1β, 10 μ/ml) [MFI]	COLL (type II collagen) (type II collagen; donor F73 + IL-1β, 10 μg/ml) [MFI]	change in levels of IL-1α (IL-1α)	IL-1α (IL-1α; [3]) [MFI]	IL-Iα (IL-1α; [4]) [MFI]	IL-1α (IL-1α; donor F16 + IL-1β, 10 μ/ml) [MFI]	IL-Iα (IL-1α; donor F73 + IL-1β, 10 μg/ml) [MFI]	change in levels of IL-1β (IL-1β)	IL-1β (IL-1β; [3]) [MFI]	IL-1β (IL-1β; [4]) [MFI]	IL-1β (IL-1β; donor F16 + IL-1β, 10 μ/ml) [MFI]	further results
CO[C@H]1O[C@H](COS(=O)(=O)[O-])[C@@H](O)[C@H](O[C@@H]2O[C@H](C(=O)[O-])[C@@H](O)[C@H](O)[C@H]2O)[C@H]1NC(C)=O.[Na+].[Na+] [Ib, Methyl 2-acetamido-2-deoxy-3-O-(β-D-glucopyranosyluronic acid)-6-O-sulfo-α-D-glucopyranoside, disodium salt]	cartilage structure modifying effects																				AGGR (aggrecan) (aggrecan; [2]): 14.41 MFI; AGGR (aggrecan) (aggrecan; donor F16 + IL-1β, 25 μ/ml): 48.77 MFI; COLL (type II collagen) (type II collagen; [2]): 1.00 MFI; COLL (type II collagen) (type II collagen; donor F16 + IL-1β, 25 μ/ml): 2.92 MFI; IL-1α (IL-1α; [2]): 44.24 MFI; IL-1α (IL-1α; donor F16 + IL-1β, 25 μ/ml): 19.83 MFI; IL-1β (IL-1β; [2]): 2.92 MFI; IL-1β (IL-1β; donor F16 + IL-1β, 25 μ/ml): 1.03 MFI; MMP-13 (MMP-13; [2]): 17.67 MFI; MMP-13 (MMP-13; donor F16 + IL-1β, 25 μ/ml): 22.49 MFI
chondroitin polysulphate [CPS]		statistically significant increase	19.47	19.47	46.41	24.71	statistically significant increase	2.12	2.12	2.31	1.96	statistically significant decrease	43.84	43.84	16.94	16.43	statistically significant decrease	2.68	2.68	1.18	IL-1β (IL-1β; donor F73 + IL-1β, 10 μg/ml): 0.45 MFI; change in levels of MMP-13 (MMP-13): statistically significant decrease; MMP-13 (MMP-13; [3]): 11.82 MFI; MMP-13 (MMP-13; [4]): 11.82 MFI; MMP-13 (MMP-13; donor F16 + IL-1β, 10 μ/ml): 23.20 MFI; MMP-13 (MMP-13; donor F73 + IL-1β, 10 μg/ml): 22.11 MFI
chondroitin sulphate [CS]		statistically significant increase	15.09	15.09	47.39	28.72	statistically significant increase	1.23	1.23	2.97	1.45	statistically significant decrease	45.41	45.41	17.09	17.49	statistically significant decrease	3.06	3.06	1.17	IL-1β (IL-1β; donor F73 + IL-1β, 10 μg/ml): 0.47 MFI; change in levels of MMP-13 (MMP-13): statistically significant decrease; MMP-13 (MMP-13; [3]): 14.70 MFI; MMP-13 (MMP-13; [4]): 14.70 MFI; MMP-13 (MMP-13; donor F16 + IL-1β, 10 μ/ml): 23.34 MFI; MMP-13 (MMP-13; donor F73 + IL-1β, 10 μg/ml): 21.12 MFI
CO[C@H]1O[C@H](COS(=O)(=O)O)[C@@H](OS(=O)(=O)O)[C@H](O[C@@H]2O[C@H](C(=O)O)[C@@H](O)[C@H](O)[C@H]2O)[C@H]1NC(C)=O [Ic, Methyl 2-acetamido-2-deoxy-3-O-(β-D-glucopyranosyluronic acid)-4,6-di-O-sulfo-α-D-glucopyranoside, trisodium salt]	cartilage structure modifying effects																				AGGR (aggrecan) (aggrecan; [5]): 18.42 MFI; AGGR (aggrecan) (aggrecan; donor F73 + IL-1β, 25 μg/ml): 59.82 MFI; COLL (type II collagen) (type II collagen; [5]): 0.97 MFI; COLL (type II collagen) (type II collagen; donor F73 + IL-1β, 25 μg/ml): 2.45 MFI; IL-Iα (IL-1α; [5]): 44.69 MFI; IL-Iα (IL-1α; donor F73 + IL-1β, 25 μg/ml): 14.92 MFI; IL-1β (IL-1β; [5]): 3.63 MFI; IL-1β (IL-1β; donor F73 + IL-1β, 25 μg/ml): 0.45 MFI; MMP-13 (MMP-13; [5]): 19.62 MFI; MMP-13 (MMP-13; donor F73 + IL-1β, 25 μg/ml): 18.92 MFI
